20 compounds from US20260138976A1 (Hoffmann-La Roche Inc., priority 2022, published 2026) can be followed below.

Usually IC50 stands for the midpoint of a concentration-inhibition curve.

Molecules are shown by their SMILES.

The target of assay [1] is T1, DGKα (hDGKalpha(1-735)-N-His) (Homo sapiens, UniProt P23743).
T1 construct: hDGKalpha(1-735)-N-His; His (N); made in house; host or cells: Sf21 insect cells (baculovirus)
In words: In vitro DGK inhibition assay, DGKalpha ADP Glo (in house). It is filed as biochemical. The following applies: 4 nM DGKα, 25 μM ATP, 125 uM DLG in liposomes, 1 hour reaction. In a few lines: (§1)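 ADP-Glo luminescence measured ADP formed over 1 h by Sf21-expressed full-length human enzymes: DGKα at 4 nM with 25 µM ATP, DGKζ at 2 nM with 50 µM ATP, both on 125 µM DLG in PS/PC liposomes. Dose–response used 11 threefold dilutions at 2% final DMSO.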

Assay [2] concerns the target T2, DGKζ (hDGKzeta(1-928)-N-His) (Homo sapiens, UniProt Q13574).
T2 construct: hDGKzeta(1-928)-N-His; His (N); made in house; host or cells: Sf21 insect cells (baculovirus)
As to the kind of experiment: In vitro DGK inhibition assay, DGKzeta ADP Glo (in house). The assay is classed as biochemical. Particulars: 2 nM DGKζ, 50 μM ATP, 125 uM DLG in liposomes, 1 hour reaction. In a few lines:
as §1
On the technique in general: ADP-Glo turns the ADP formed in a reaction into a luminescent signal.

T1 sequence (P23743 whole entry): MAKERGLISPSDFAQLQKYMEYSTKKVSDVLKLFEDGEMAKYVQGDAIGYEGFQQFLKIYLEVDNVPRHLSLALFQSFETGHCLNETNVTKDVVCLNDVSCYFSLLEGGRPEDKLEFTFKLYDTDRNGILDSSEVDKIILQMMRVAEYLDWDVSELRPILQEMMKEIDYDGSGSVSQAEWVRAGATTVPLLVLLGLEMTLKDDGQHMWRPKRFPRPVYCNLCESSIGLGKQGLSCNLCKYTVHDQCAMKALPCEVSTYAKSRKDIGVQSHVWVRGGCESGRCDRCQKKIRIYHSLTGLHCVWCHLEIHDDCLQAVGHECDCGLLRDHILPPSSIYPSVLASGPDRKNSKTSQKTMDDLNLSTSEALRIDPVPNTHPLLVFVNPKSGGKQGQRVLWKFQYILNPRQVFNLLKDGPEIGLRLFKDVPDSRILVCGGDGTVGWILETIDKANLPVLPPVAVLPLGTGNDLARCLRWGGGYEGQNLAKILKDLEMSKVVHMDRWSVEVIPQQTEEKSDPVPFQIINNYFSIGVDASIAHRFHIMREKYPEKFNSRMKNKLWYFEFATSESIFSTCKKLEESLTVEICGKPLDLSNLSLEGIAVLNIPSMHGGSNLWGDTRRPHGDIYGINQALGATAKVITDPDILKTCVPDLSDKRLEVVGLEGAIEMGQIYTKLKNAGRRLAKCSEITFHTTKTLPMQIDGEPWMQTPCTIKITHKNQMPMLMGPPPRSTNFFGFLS
T2 sequence (Q13574 whole entry): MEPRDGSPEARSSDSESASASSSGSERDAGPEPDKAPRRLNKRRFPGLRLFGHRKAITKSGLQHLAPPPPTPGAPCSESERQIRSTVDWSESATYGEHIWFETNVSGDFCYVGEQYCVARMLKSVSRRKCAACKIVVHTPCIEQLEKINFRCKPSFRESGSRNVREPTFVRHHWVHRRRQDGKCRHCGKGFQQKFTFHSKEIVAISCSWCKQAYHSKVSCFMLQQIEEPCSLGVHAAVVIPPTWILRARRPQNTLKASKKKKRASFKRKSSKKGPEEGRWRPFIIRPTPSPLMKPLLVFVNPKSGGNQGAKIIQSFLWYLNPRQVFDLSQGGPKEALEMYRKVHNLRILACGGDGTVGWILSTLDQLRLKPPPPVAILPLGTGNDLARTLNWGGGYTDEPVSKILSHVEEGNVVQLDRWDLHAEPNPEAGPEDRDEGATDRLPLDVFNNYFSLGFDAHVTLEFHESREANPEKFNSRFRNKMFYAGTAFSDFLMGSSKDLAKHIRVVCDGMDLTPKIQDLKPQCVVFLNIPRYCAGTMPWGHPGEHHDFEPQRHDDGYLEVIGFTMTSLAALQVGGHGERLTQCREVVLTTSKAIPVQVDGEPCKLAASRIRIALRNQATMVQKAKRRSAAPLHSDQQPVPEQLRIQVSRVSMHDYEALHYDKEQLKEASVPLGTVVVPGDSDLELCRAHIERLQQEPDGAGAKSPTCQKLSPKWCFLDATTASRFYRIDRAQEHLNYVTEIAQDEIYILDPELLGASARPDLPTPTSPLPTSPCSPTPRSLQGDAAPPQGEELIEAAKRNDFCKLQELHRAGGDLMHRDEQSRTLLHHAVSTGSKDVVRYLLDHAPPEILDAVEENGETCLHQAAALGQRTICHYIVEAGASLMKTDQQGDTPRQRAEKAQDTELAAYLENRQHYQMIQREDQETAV

Take `CN1CCCC(F)(c2nnc(-c3ccc4c(c3)N(Cc3ccc(-c5ccc(C(F)(F)F)cn5)cc3)C(=O)[C@@H](N)CS4(=O)=O)o2)C1` (stereo partly drawn) [Example 51, (3R)-3-amino-7-[5-(3-fluoro-1-methyl-3-piperidyl)-1,3,4-oxadiazol-2-yl]-1,1-dioxo-5-[[4-[5-(trifluoromethyl)-2-pyridyl]phenyl]methyl]-2,3-dihydro-1λ^6,5-benzothiazepin-4-one]: the IC50 in assay [1] was found to be 6260 nM; in assay [2] it was 1800 nM.
Taken in the same sequence, the figures for `N[C@H]1CS(=O)(=O)c2cc(F)c(-c3nnc(N4CCC(F)(F)CC4)o3)cc2N(Cc2ccc(-c3noc(C(F)(F)F)n3)cc2)C1=O` [Example 5, (3R)-3-amino-7-[5-(4,4-difluoro-1-piperidyl)-1,3,4-oxadiazol-2-yl]-8-fluoro-1,1-dioxo-5-[[4-[5-(trifluoromethyl)-1,2,4-oxadiazol-3-yl]phenyl]methyl]-2,3-dihydro-1λ^6,5-benzothiazepin-4-one] were 635 nM and 68 nM.
The matching figures for `N[C@H]1CS(=O)(=O)c2ccc(-c3nnc(C(F)C(F)(F)F)o3)cc2N(Cc2ccc(-c3noc(C4CC4)n3)cc2)C1=O` (stereo partly drawn) [Example 168, (3R)-3-amino-5-[[4-(5-cyclopropyl-1,2,4-oxadiazol-3-yl)phenyl]methyl]-1,1-dioxo-7-[5-(1,2,2,2-tetrafluoroethyl)-1,3,4-oxadiazol-2-yl]-2,3-dihydro-1λ^6,5-benzothiazepin-4-one]: greater than 62500 nM and 1600 nM.
Regarding `CC(F)(F)c1ccc(-c2ccc(CN3C(=O)[C@@H](N)CS(=O)(=O)c4ccc(-c5nnc(C(C)(C)C#N)o5)cc43)cc2)nc1` [Example 109, 2-[5-[(3R)-3-amino-5-[[4-[5-(1,1-difluoroethyl)-2-pyridyl]phenyl]methyl]-1,1,4-trioxo-2,3-dihydro-1λ^6,5-benzothiazepin-7-yl]-1,3,4-oxadiazol-2-yl]-2-methyl-propanenitrile], the results for the IC50 in assay [1] and in assay [2] were 2110 nM and 864 nM, respectively.
`CC(C)(C#N)c1nnc(-c2ccc3c(c2)N(Cc2ccc(-c4cnc(C(F)(F)F)nc4)cc2)C(=O)[C@@H](N)CS3(=O)=O)o1` [Example 100]: the values for the IC50 in assay [1] and in assay [2] were greater than 62500 nM and 1460 nM, respectively.
Taken in the same sequence, the figures for `N[C@H]1CS(=O)(=O)c2cc(F)c(-c3noc(N4CCOC5(CC5)C4)n3)cc2N(Cc2ccc(-c3noc(C(F)(F)F)n3)nc2)C1=O` [Example 14, (3R)-3-amino-8-fluoro-7-[5-(4-oxa-7-azaspiro[2.5]octan-7-yl)-1,2,4-oxadiazol-3-yl]-1,1-dioxo-5-[[6-[5-(trifluoromethyl)-1,2,4-oxadiazol-3-yl]-3-pyridyl]methyl]-2,3-dihydro-1λ^6,5-benzothiazepin-4-one] were 36900 nM and 144 nM.
Take `CC(C)(C#N)c1nnc(-c2ccc3c(c2)N(Cc2ccc(-c4ncc(C(F)(F)F)o4)cc2)C(=O)[C@@H](N)CS3(=O)=O)o1` [Example 105, 2-[5-[(3R)-3-amino-1,1,4-trioxo-5-[[4-[5-(trifluoromethyl)oxazol-2-yl]phenyl]methyl]-2,3-dihydro-1λ^6,5-benzothiazepin-7-yl]-1,3,4-oxadiazol-2-yl]-2-methyl-propanenitrile]: the IC50 was determined as 694 nM in assay [1] and 787 nM in assay [2].
On to `CC1(Nc2nnc(-c3cc4c(cc3F)S(=O)(=O)C[C@H](N)C(=O)N4Cc3ccc(-c4noc(C(F)(F)F)n4)cc3)o2)CC(F)(F)C1` [Example 3, (3R)-3-amino-7-[5-[(3,3-difluoro-1-methyl-cyclobutyl)amino]-1,3,4-oxadiazol-2-yl]-8-fluoro-1,1-dioxo-5-[[4-[5-(trifluoromethyl)-1,2,4-oxadiazol-3-yl]phenyl]methyl]-2,3-dihydro-1λ^6,5-benzothiazepin-4-one], for which the IC50 came out at 10300 nM in assay [1] and 1280 nM in assay [2].
Taken in the same sequence, the figures for `CC(C)(C#N)c1nnc(-c2ccc3c(c2)N(Cc2ccc(-c4cc(OC(F)(F)F)ccn4)cc2)C(=O)[C@@H](N)CS3(=O)=O)o1` [Example 126, 2-[5-[(3R)-3-amino-1,1,4-trioxo-5-[[4-[4-(trifluoromethoxy)-2-pyridyl]phenyl]methyl]-2,3-dihydro-1λ^6,5-benzothiazepin-7-yl]-1,3,4-oxadiazol-2-yl]-2-methyl-propanenitrile] were 4380 nM and 541 nM.
Taken in the same sequence, the figures for `N#CC1(c2nc(-c3cc4c(cc3F)S(=O)(=O)C[C@H](N)C(=O)N4Cc3ccc(-c4noc(C(F)(F)F)n4)cc3)no2)CC1` [Example 16, 1-[3-[(3R)-3-amino-8-fluoro-1,1,4-trioxo-5-[[4-[5-(trifluoromethyl)-1,2,4-oxadiazol-3-yl]phenyl]methyl]-2,3-dihydro-1λ^6,5-benzothiazepin-7-yl]-1,2,4-oxadiazol-5-yl]cyclopropanecarbonitrile] were 1740 nM and 281 nM.
As to `N#CC1(c2nnc(-c3ccc4c(c3)N(Cc3ccc(-c5ccc(C(F)(F)F)cn5)cc3)C(=O)[C@@H](N)CS4(=O)=O)o2)CC1` [Example 62, 1-[5-[(3R)-3-amino-1,1,4-trioxo-5-[[4-[5-(trifluoromethyl)-2-pyridyl]phenyl]methyl]-2,3-dihydro-1λ^6,5-benzothiazepin-7-yl]-1,3,4-oxadiazol-2-yl]cyclopropane-carbonitrile], the values for the IC50 in assay [1] and in assay [2] were greater than 19800 nM and 1500 nM, respectively.
The matching figures for `Cc1cc(C)n(-c2ccc(CN3C(=O)[C@@H](N)CS(=O)(=O)c4ccc(-c5nnc(C(C)(C)C)o5)cc43)cc2)n1` [Example 22, (3R)-3-amino-7-(5-tert-butyl-1,3,4-oxadiazol-2-yl)-5-[[4-(3,5-dimethylpyrazol-1-yl)phenyl]methyl]-1,1-dioxo-2,3-dihydro-1λ^6,5-benzothiazepin-4-one]: 1860 nM and 1090 nM.
The matching figures for `C[C@@](N)(c1nnc(-c2ccc3c(c2)N(Cc2ccc(-n4nnc(C(F)(F)F)n4)cc2)C(=O)[C@@H](N)CS3(=O)=O)o1)C(F)(F)F` [Example 156, (3R)-3-amino-7-[5-[(1R)-1-amino-2,2,2-trifluoro-1-methyl-ethyl]-1,3,4-oxadiazol-2-yl]-1,1-dioxo-5-[[4-[5-(trifluoromethyl)tetrazo 1-2-yl]phenyl]methyl]-2,3-dihydro-1λ^6,5-benzothiazepin-4-one]: 17800 nM and 2960 nM.
As to `CC(C)(C)c1nnc(-c2ccc(CN3C(=O)[C@@H](N)CS(=O)(=O)c4ccc(-c5nnc(C(C)(C)C)o5)cc43)cc2)o1` [Example 19, (3R)-3-amino-7-(5-tert-butyl-1,3,4-oxadiazol-2-yl)-5-[[4-(5-tert-butyl-1,3,4-oxadiazol-2-yl)phenyl]methyl]-1,1-dioxo-2,3-dihydro-1λ^6,5-benzothiazepin-4-one], the IC50 worked out at 18200 nM in assay [1] and 783 nM in assay [2].
Taken in the same sequence, the figures for `COc1ccc(-c2ccc(CN3C(=O)[C@@H](N)CS(=O)(=O)c4ccc(-c5nnc(C(C)(C)C#N)o5)cc43)cc2)nc1` [Example 125] were 3520 nM and 930 nM.
Taken in the same sequence, the figures for `CC(C)(C#N)c1nnc(-c2ccc3c(c2)N(Cc2ccc(-c4ncc(C(F)(F)F)cn4)cc2)C(=O)[C@@H](N)CS3(=O)=O)o1` [Example 127, 2-[5-[(3R)-3-amino-1,1,4-trioxo-5-[[4-[5-(trifluoromethyl)pyrimidin-2-yl]phenyl]methyl]-2,3-dihydro-1λ^6,5-benzothiazepin-7-yl]-1,3,4-oxadiazol-2-yl]-2-methyl-propanenitrile] were greater than 60000 nM and 2450 nM.
The matching figures for `C[C@@](N)(c1nnc(-c2ccc3c(c2)N(Cc2ccc(-c4ccc(OC(F)(F)F)cn4)cc2)C(=O)[C@@H](N)CS3(=O)=O)o1)C(F)(F)F` [Example 153, (3R)-3-amino-7-[5-[(1R)-1-amino-2,2,2-trifluoro-1-methyl-ethyl]-1,3,4-oxadiazol-2-yl]-1,1-dioxo-5-[[4-[5-(trifluoromethoxy)-2-pyridyl]phenyl]methyl]-2,3-dihydro-1λ^6,5-benzothiazepin-4-one]: 2050 nM and 2250 nM.
For `N[C@H]1CS(=O)(=O)c2ccc(-c3nnc(C4(N)CCCCC4)o3)cc2N(Cc2ccc(-c3ccc(C(F)(F)F)cc3)cc2)C1=O` [Example 42, (3R)-3-amino-7-[5-(1-aminocyclohexyl)-1,3,4-oxadiazol-2-yl]-1,1-dioxo-5-[[4-[4-(trifluoromethyl)phenyl]phenyl]methyl]-2,3-dihydro-1λ^6,5-benzothiazepin-4-one], the figures for the IC50 in assay [1] and in assay [2] were 30400 nM and 8120 nM, respectively.
On to `COc1ccc(-c2ccc(CN3C(=O)[C@@H](N)CS(=O)(=O)c4cc(F)c(-c5noc(C6(N)COC6)n5)cc43)cc2)cc1` [Example 8, (3R)-3-amino-7-[5-(3-aminooxetan-3-yl)-1,2,4-oxadiazol-3-yl]-8-fluoro-5-[[4-(4-methoxyphenyl)phenyl]methyl]-1,1-dioxo-2,3-dihydro-1λ^6,5-benzothiazepin-4-one], for which the IC50 in assay [1] is 7030 nM; in assay [2], 137 nM.
The matching figures for `CC(C)(C#N)c1nnc(-c2ccc3c(c2)N(Cc2ccc(-c4ccnc(C(F)(F)F)c4)cc2)C(=O)[C@@H](N)CS3(=O)=O)o1` [Example 111, 2-[5-[(3R)-3-amino-1,1,4-trioxo-5-[[4-[2-(trifluoromethyl)-4-pyridyl]phenyl]methyl]-2,3-dihydro-1λ^6,5-benzothiazepin-7-yl]-1,3,4-oxadiazol-2-yl]-2-methyl-propanenitrile]: greater than 62500 nM and 1130 nM.
